# Measurements taken from patent publication US8952034B2, “Fused heterocyclic compounds as ion channel modulators” (Gilead Sciences, Inc., priority 2009, dated 2015).
# Biological target: wild-type human cardiac sodium channel, hNav1.5 (Homo sapiens, UniProt Q14524)
# Experiment: Late INa screening assay (automated whole cell patch clamp, PatchXpress)
# Assay type: cell-based
# Settings: compound at 1 μM; HEK293 cells expressing hNav1.5; late INa generated with 10 μM Tefluthrin (or 50 nM ATX II); read-out: LateINa_1 uM (percent block of late INa)
# Procedure, shortened: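 Late sodium current through wild-type human hNav1.5 stably expressed in HEK293 cells (no beta subunits) was recorded by automated whole-cell patch clamp on a PatchXpress 7000A at 24-27° C. Late INa was induced with 10 μM Tefluthrin or 50 nM ATX II. Cells were stepped from −120 mV to −20 mV for 250 ms at 0.1 Hz, and percent block was normalized to current in Na-free extracellular solution.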
# Sequence of wild-type human cardiac sodium channel, hNav1.5 (Q14524 whole entry): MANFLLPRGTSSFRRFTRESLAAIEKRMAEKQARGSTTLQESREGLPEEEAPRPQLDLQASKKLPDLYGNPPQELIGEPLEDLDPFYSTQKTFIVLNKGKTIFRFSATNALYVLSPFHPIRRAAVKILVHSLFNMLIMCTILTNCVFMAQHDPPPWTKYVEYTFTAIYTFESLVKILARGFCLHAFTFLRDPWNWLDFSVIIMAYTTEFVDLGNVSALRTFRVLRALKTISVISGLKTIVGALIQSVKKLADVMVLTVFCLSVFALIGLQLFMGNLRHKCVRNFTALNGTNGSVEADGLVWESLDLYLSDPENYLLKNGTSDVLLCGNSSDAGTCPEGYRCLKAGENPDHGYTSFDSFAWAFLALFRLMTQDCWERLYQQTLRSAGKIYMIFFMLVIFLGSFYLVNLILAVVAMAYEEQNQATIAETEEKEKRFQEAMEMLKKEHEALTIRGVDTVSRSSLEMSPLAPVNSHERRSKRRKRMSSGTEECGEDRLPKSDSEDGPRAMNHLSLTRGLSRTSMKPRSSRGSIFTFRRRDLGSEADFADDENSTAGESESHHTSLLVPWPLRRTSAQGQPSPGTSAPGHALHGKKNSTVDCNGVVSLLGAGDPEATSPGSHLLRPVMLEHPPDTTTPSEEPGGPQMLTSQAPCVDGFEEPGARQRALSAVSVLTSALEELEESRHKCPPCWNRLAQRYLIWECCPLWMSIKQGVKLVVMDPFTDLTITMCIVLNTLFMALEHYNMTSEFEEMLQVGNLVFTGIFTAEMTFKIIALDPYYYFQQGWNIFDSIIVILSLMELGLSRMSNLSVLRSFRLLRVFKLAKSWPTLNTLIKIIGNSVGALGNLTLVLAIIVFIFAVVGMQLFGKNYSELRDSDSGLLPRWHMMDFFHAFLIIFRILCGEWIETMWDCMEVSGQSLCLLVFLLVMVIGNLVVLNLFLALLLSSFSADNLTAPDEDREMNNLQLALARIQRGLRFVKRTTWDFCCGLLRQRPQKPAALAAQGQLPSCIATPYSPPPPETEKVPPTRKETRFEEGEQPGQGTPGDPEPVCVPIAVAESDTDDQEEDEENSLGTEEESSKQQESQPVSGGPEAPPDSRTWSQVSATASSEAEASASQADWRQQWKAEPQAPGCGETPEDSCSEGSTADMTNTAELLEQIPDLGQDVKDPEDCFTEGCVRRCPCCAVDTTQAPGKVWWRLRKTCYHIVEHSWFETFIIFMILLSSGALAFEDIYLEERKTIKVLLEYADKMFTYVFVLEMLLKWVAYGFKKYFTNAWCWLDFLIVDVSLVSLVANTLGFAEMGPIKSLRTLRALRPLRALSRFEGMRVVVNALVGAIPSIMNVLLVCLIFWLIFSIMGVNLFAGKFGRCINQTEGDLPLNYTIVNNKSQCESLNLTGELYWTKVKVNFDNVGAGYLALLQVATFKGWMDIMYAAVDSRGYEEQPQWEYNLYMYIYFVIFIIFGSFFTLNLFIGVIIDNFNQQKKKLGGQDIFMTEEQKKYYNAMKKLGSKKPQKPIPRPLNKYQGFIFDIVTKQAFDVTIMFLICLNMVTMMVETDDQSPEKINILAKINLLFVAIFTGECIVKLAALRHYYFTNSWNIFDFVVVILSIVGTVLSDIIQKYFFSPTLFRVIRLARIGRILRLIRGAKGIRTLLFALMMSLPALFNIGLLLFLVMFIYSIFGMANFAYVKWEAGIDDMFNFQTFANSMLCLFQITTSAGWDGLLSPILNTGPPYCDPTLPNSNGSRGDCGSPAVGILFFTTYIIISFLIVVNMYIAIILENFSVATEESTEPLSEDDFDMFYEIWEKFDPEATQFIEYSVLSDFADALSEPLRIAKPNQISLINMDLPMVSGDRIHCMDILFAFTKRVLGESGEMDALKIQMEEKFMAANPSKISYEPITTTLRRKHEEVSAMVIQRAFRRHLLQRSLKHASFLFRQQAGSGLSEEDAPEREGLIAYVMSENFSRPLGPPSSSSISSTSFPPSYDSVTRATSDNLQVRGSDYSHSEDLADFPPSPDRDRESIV
row,SMILES,inhibition at 1 µM [%]
1,"COc1ccc(N2CCN(CCOC(F)(F)c3nnc4ccc(-c5ccc(OC(F)(F)F)cc5)cn34)CC2)cc1 [BHN-264, 3-(difluoro{2-[4-(4-methoxyphenyl)piperazin-1-yl]ethoxy}methyl)-6-[4-(trifluoromethoxy)phenyl][1,2,4]triazolo[4,3-a]pyridine]",54.3
2,"NC(=O)c1nnc2ccc(-c3ccc(OC(F)(F)F)cc3)cn12 [BHN-265, 6-[4-(trifluoromethoxy)phenyl][1,2,4]triazolo[4,3-a]pyridine-3-carboxamide]",15.3
3,"Cn1nc(C2CC2)cc1COC(F)(F)c1nnc2ccc(-c3ccc(OC(F)(F)F)cc3)cn12 [BHN-266, 3-{[(3-cyclopropyl-1-methyl-1H-pyrazol-5-yl)methoxy](difluoro)methyl}-6-[4-(trifluoromethoxy)phenyl][1,2,4]triazolo[4,3-a]pyridine]",50.2
4,"OC(COCC(F)(F)c1nnc2ccc(-c3ccc(OC(F)(F)F)cc3)cn12)COc1ccccc1Cl (centres unmarked) [BHN-267, 1-(2-chlorophenoxy)-3-(2,2-difluoro-2-{6-[4-(trifluoromethoxy)phenyl][1,2,4]triazolo[4,3-a]pyridin-3-yl}ethoxy)propan-2-ol]",26.5
5,"Cc1cc(-c2ccc(OC(F)(F)F)cc2)cn2nnnc12 [BHN-268, 8-methyl-6-[4-(trifluoromethoxy)phenyl]tetrazolo[1,5-a]pyridine]",43.2
6,"Cc1c(-c2ccc(OC(F)(F)F)cc2)ccc2nnnn12 [BHN-269, 5-methyl-6-[4-(trifluoromethoxy)phenyl]tetrazolo[1,5-a]pyridine]",44.7
7,"Clc1ccc(Oc2ccc(-c3ccc4nnnn4n3)cc2)cc1 [BHN-270, 6-[4-(4-chlorophenoxy)phenyl]tetrazolo[1,5-b]pyridazine]",21.7
8,"FC(F)(F)c1nnc2ccc(-c3ccc(OC(F)(F)c4cccnc4)cc3)cn12 [BHN-271, 6-{4-[difluoro(pyridin-3-yl)methoxy]phenyl}-3-(trifluoromethyl)[1,2,4]triazolo[4,3-a]pyridine]",19.9
9,"FC(F)(F)c1nnc2ccc(-c3ccc(OC(F)(F)c4ccccc4)cc3)cn12 [BHN-272, 6-{4-[difluoro(phenyl)methoxy]phenyl}-3-(trifluoromethyl)[1,2,4]triazolo[4,3-a]pyridine]",64.9
10,"Cc1ccccc1Oc1nnc2ccc(-c3ccc(OC(F)(F)F)cc3)cn12 [BHN-273, 3-(2-methylphenoxy)-6-[4-(trifluoromethoxy)phenyl][1,2,4]triazolo[4,3-a]pyridine]",68.7
11,"Cc1ccc(C)c(OCC(O)COCC(F)(F)c2nnc3ccc(-c4ccc(OC(F)(F)F)cc4)cn23)c1 (centres unmarked) [BHN-274, 1-(2,2-difluoro-2-{6-[4-(trifluoromethoxy)phenyl][1,2,4]triazolo[4,3-a]pyridin-3-yl}ethoxy)-3-(2,5-dimethylphenoxy)propan-2-ol]",38.9
12,"FC(F)(F)c1ccc(-c2ccc3nnc(C(F)(F)OCC4CC4)n3c2)cn1 [BHN-275, 3-[(cyclopropylmethoxy)(difluoro)methyl]-6-[6-(trifluoromethyl)pyridin-3-yl][1,2,4]triazolo[4,3-a]pyridine]",28.6
13,"N#Cc1cc(Cl)ccc1Nc1ccc(-c2ccc3nnc(C(F)(F)F)n3c2)cc1 [BHN-276, 5-chloro-2-({4-[3-(trifluoromethyl)[1,2,4]triazolo[4,3-a]pyridin-6-yl]phenyl}amino)benzonitrile]",16.2
14,"COCc1c(-c2ccc(OC(F)(F)F)cc2)ccc2nnc(C(F)(F)F)n12 [BHN-277, 5-(methoxymethyl)-6-[4-(trifluoromethoxy)phenyl]-3-(trifluoromethyl)[1,2,4]triazolo[4,3-a]pyridine]",38
15,"CN(c1ccccc1)c1ccc(-c2ccc3nnc(C(F)(F)F)n3c2)cc1 [BHN-278, N-methyl-N-phenyl-4-[3-(trifluoromethyl)[1,2,4]triazolo[4,3-a]pyridin-6-yl]aniline]",54.2
16,"N#CCOCc1c(-c2ccc(OC(F)(F)F)cc2)ccc2nnc(C(F)(F)F)n12 [BHN-279, ({6-[4-(trifluoromethoxy)phenyl]-3-(trifluoromethyl)[1,2,4]triazolo[4,3-a]pyridin-5-yl}methoxy)acetonitrile]",19.1
17,"N#Cc1ccc(C(F)(F)Oc2ccc(-c3ccc4nnc(C(F)(F)F)n4c3)cc2)cc1 [BHN-280, 4-(difluoro{4-[3-(trifluoromethyl)[1,2,4]triazolo[4,3-a]pyridin-6-yl]phenoxy}methyl)benzonitrile]",63.7
18,"FC(F)(F)Oc1ccc(-c2ccc3nnc(C(F)(F)OCc4cccc5ncccc45)n3c2)cc1 [BHN-281, 5-[(difluoro{6-[4-(trifluoromethoxy)phenyl][1,2,4]triazolo[4,3-a]pyridin-3-yl}methoxy)methyl]quinoline]",53.9

row,SMILES,inhibition at 1 µM [%]
1,"CC(OC(F)(F)c1nnc2ccc(-c3ccc(OC(F)(F)F)cc3)cn12)c1cnc2ccccc2c1 (centres unmarked) [BHN-282, 3-[1-(difluoro{6-[4-(trifluoromethoxy)phenyl][1,2,4]triazolo[4,3-a]pyridin-3-yl}methoxy)ethyl]quinoline]",62.7
2,"FC(F)(F)c1nnc2ccc(-c3ccc(Nc4ccc(Cl)cc4)cc3)cn12 [BHN-283, 4-chloro-N-{4-[3-(trifluoromethyl)[1,2,4]triazolo[4,3-a]pyridin-6-yl]phenyl}aniline]",27.2
3,"Fc1ccc(Nc2ccc(-c3ccc4nnc(C(F)(F)F)n4c3)cc2)cc1 [BHN-284, 4-fluoro-N-{4-[3-(trifluoromethyl)[1,2,4]triazolo[4,3-a]pyridin-6-yl]phenyl}aniline]",31.4
4,"Cc1cccc(C)c1OCCOC(F)(F)c1nnc2ccc(-c3ccc(OC(F)(F)F)cc3)cn12 [BHN-285, 3-{[2-(2,6-dimethylphenoxy)ethoxy](difluoro)methyl}-6-[4-(trifluoromethoxy)phenyl][1,2,4]triazolo[4,3-a]pyridine]",68
5,"FC(F)(F)Oc1ccc(-c2ccc3nnc(C(F)(F)OCc4cnn(-c5ccccc5)c4)n3c2)cc1 [BHN-287, 3-{difluoro[(1-phenyl-1H-pyrazol-4-yl)methoxy]methyl}-6-[4-(trifluoromethoxy)phenyl][1,2,4]triazolo[4,3-a]pyridine]",47.1
6,"FC(F)(F)Oc1ccc(-c2ccc3nnc(C(F)(F)OCc4coc(-c5ccc(C(F)(F)F)cc5)n4)n3c2)cc1 [BHN-288, 3-[difluoro({2-[4-(trifluoromethyl)phenyl]-1,3-oxazol-4-yl}methoxy)methyl]-6-[4-(trifluoromethoxy)phenyl][1,2,4]triazolo[4,3-a]pyridine]",39.2
7,"Cc1cc(COC(F)(F)c2nnc3ccc(-c4ccc(OC(F)(F)F)cc4)cn23)c2ccccc2n1 [BHN-289, 4-[(difluoro{6-[4-(trifluoromethoxy)phenyl][1,2,4]triazolo[4,3-a]pyridin-3-yl}methoxy)methyl]-2-methylquinoline]",47.9
8,"FC(F)(F)Oc1ccc(-c2ccc3nnc(C(F)(F)OCc4cc(C(F)(F)F)nc5ccccc45)n3c2)cc1 [BHN-290, 4-[(difluoro{6-[4-(trifluoromethoxy)phenyl][1,2,4]triazolo[4,3-a]pyridin-3-yl}methoxy)methyl]-2-(trifluoromethyl)quinoline]",34.6
9,"FC(F)(F)Oc1ccc(-c2ccc3nnc(C(F)(F)OCc4ccc5nccnc5c4)n3c2)cc1 [BHN-291, 6-[(difluoro{6-[4-(trifluoromethoxy)phenyl][1,2,4]triazolo[4,3-a]pyridin-3-yl}methoxy)methyl]quinoxaline]",47
10,"O=[N+]([O-])c1ccc(-c2ccc3nnc(C(F)(F)F)n3c2)c(Cl)c1 [BHN-292, 6-(2-chloro-4-nitrophenyl)-3-(trifluoromethyl)[1,2,4]triazolo[4,3-a]pyridine]",26
11,"CC#CCOC(F)(F)c1nnc2ccc(-c3ccc(OC(F)(F)F)cc3)cn12 [BHN-293, 3-[(but-2-yn-1-yloxy)(difluoro)methyl]-6-[4-(trifluoromethoxy)phenyl][1,2,4]triazolo[4,3-a]pyridine]",80.6
12,"FC(F)(F)Oc1ccc(-c2ccc3nnc(C(F)(F)OCC4CC4(F)F)n3c2)cc1 (centres unmarked) [BHN-294, 3-{[(2,2-difluorocyclopropyl)methoxy](difluoro)methyl}-6-[4-(trifluoromethoxy)phenyl][1,2,4]triazolo[4,3-a]pyridine]",77.6
13,"FC(F)(F)Oc1ccc(-c2ccc3nnc(C(F)(F)OCC#Cc4ccccc4)n3c2)cc1 [BHN-295, 3-{difluoro[(3-phenylprop-2-yn-1-yl)oxy]methyl}-6-[4-(trifluoromethoxy)phenyl][1,2,4]triazolo[4,3-a]pyridine]",87.7
14,"Cn1c(COC(F)(F)c2nnc3ccc(-c4ccc(OC(F)(F)F)cc4)cn23)nc2ccccc21 [BHN-296, 3-{difluoro[(1-methyl-1H-benzimidazol-2-yl)methoxy]methyl}-6-[4-(trifluoromethoxy)phenyl][1,2,4]triazolo[4,3-a]pyridine]",40.1
15,"FC(F)(F)Oc1ccc(-c2ccc3nnc(C(F)(F)OCc4cn(Cc5ccccc5)nn4)n3c2)cc1 [BHN-297, 3-{[(1-benzyl-1H-1,2,3-triazol-4-yl)methoxy](difluoro)methyl}-6-[4-(trifluoromethoxy)phenyl][1,2,4]triazolo[4,3-a]pyridine]",63.4
16,"FC(F)(F)Oc1ccc(-c2ccc3nnc(C(F)(F)OCc4cc(-c5ccccc5)on4)n3c2)cc1 [BHN-298, 3-{difluoro[(5-phenyl-1,2-oxazol-3-yl)methoxy]methyl}-6-[4-(trifluoromethoxy)phenyl][1,2,4]triazolo[4,3-a]pyridine]",70.3
17,"FC(F)(F)Oc1ccc(-c2ccc3nnc(C(F)(F)OCc4coc(-c5ccccc5)n4)n3c2)cc1 [BHN-299, 3-{difluoro[(2-phenyl-1,3-oxazol-4-yl)methoxy]methyl}-6-[4-(trifluoromethoxy)phenyl][1,2,4]triazolo[4,3-a]pyridine]",51.1
